Results: patent publication US6590123B2, “Aminobenzoic acid derivatives having anti-tumorigenic activity, methods of making and using the same” (Mount Sinai School of Medicine of New York University, priority 1998, dated 2003)
pIC50: −log10 of the molar value. Several values for one entry are separate records, joined by “and”; a condition that tells them apart may be missing. Equal values may be shown once. Entries after “also recorded” stand apart in the source; their conditions may differ. Where a name gives a salt, the structure may show the parent alone. Read-outs that look alike come from different tables or passages of the source.

Assays:
CEM cells [1] = assay: Cytotoxicity, ID50 and ID90 by trypan blue staining; format: cell-based; conditions: for IC90 / pIC50: Homo sapiens, CCRF-CEM; for IC90: 48 h; for pIC50: 48 hr, NT = Non-toxic to CEM cells
Protocol: CEM cells, a human T-cell lymphoblastoid leukemia cell line (American Type Culture Collection, Rockville, Md.), were cultured in suspension (Iscove's Dulbecco's Medium) supplemented with 10% heat inactivated fetal bovine serum (FBS), penicillin (250 μ/ml) and streptomycin (250 μl/ml). Cells were incubated at 37° C. in 5% C02 and only those cells in exponential growth were used.
CEM cells were seeded into 96-well microplates (Falcon, Oxnard, Calif.) at 10^5 cell per well, then treated with 0-10 μg/ml of the candidate compounds for 48 h at 37° C. yielding a total volume of 250 μ/well. Cell viability was assessed by trypan blue staining. ID50 and ID90 were defined as the concentration killing 50% or 90% of the cells in comparison with untreated controls, and calculated by non-linear regression analysis.
Cells in suspension culture were seeded into 96-well microplates (Falcon, Oxnard, Calif.) at 10^5 cell per well, followed, by treatment with 0-10 μg/ml of the candidate compounds for 48 hr at 37° C. with total volume of 250 μl per well. Cell viability was assessed by trypan blue exclusion.
The ID50 and ID90 was determined in duplicate in every set of experiments, and each experiment was repeated 3 times under identical conditions. ID50 and ID90 were defined as drug concentrations that induced 50% or 90% cellular death in comparison with untreated controls and calculated by non-linear regression analysis. […]

CEM cells [2] = assay: Morphology by microscopy (mitotic arrest, apoptosis, necrosis); format: cell-based, human; conditions: for Activities of inducing Apoptosis / Activities of inducing Mitotic block / Activities of inducing Necrosis / morphological effect on leukemic cells: CEM leukemic cells; for Activities of inducing Apoptosis / Activities of inducing Mitotic block / Activities of inducing Necrosis: % of affected cells; for Mitotic arrest, %: % of mitotic cells after 24 h incubation, optical microscopy
Protocol: Slides for examination of mitosis were prepared on a cytospin centrifuge (Shandon Southern Products Ltd, England ) at 700 g for 5 min. Slides were air dried, fixed in methanol and stained with Giemsa (Harleco, N.J.) at room temperature for 15 min. Cells in mitotic arrest were recognized by the disappearance of nuclear membrane and by the appearance of chromosomal scattering throughout the cytoplasm (reference 1). The % of mitotic cells were counted after 24 h incubation using optical microscopy. Apoptotic cells were identified using common criteria, i.e., shrinkage in cell size, chromatin condensation and fragmentation of the nucleus into discrete masses (reference 2).
Cell samples on slides were prepared by a Cytospin centrifuge (Shandon Southern Products Ltd, England) at 700 g for 5 min. The slides were air dried, fixed in methanol and stained with Giemsa (Harleco, N.J.) at room temperature for 15 min. Alterations of nuclei, membranes and morphological features were observed by light microscopy. Cells in mitotic phase were recognized by the appearance of their chromosomes dispersed in the cytoplasm, and by the disappearance of nuclear membrane. Apoptotic-cells were identified using previously defined criteria, i.e., shrinkage in cell size, chromatin condensation and fragmentation of the nucleus into discrete masses (references 2 & 3). Necrotic cells were differentiated from apoptotic cells by observing swollen cytoplasm and the disappearance of cell membrane prior to the destruction of the nucleus.

CEM cells [3] = assay: DNA fragmentation by electrophoresis (apoptosis); format: cell-based, human; conditions: 48 hours, compound 8 0.025 μg/ml, compound 9 0.005 μg/ml, fluorine compound 5.0 μg/ml, chlorine compound 0.75 μg/ml
Protocol: DNA fragmentation was determined by a method reported previously (reference 3). Briefly, cells were treated in 1 ml lysis buffer (0.01M Tris. HCL pH 8.0, 0.01M NaCl, 0.01M EDTA pH 8.0 and 5% sodium dodecyl sulfate) containing 1 μg/ml protease K for 1 h at 50° C. The resulting products were extracted with phenol and chloroform:isoamylalcohol (24:1, v/v), and precipitated with ethanol followed by centrifugation at 7800 g (Sorvall RC-5B Du Pont, Newtown, Conn.). The ethanol was removed and the dry pellets of nucleic acid were resuspended in 10 mM Tris-HCL/1 mM EDTA solution. When DNA content was determined spectrophotometrically all samples had A260/A280 ratio≧2. The DNA samples were then treated with RNase (Sigma, St. Louis, Mo.) at a final concentration of 0.1 μg/μl for 20 min at 37° C. before gel loading. Approximately 4 μg size DNA aliquots were loaded onto horizontal agarose gel (1.5%) prepared with 1% ethidium bromide. Electrophoresis was performed at 75 volts for 2 h and the DNA patterns were visualized with UV light.
[…] After incubation, cells were washed twice in PBS. Cell pellets were resuspended in drug-free medium and incubated for 48 hr at 37° C. Cell viability, morphology, mitotic spindles, cell cycle distribution and apoptosis were determined 24 hr and 48 hr post pulse exposure.
Soluble DNA from cells was extracted by the method reported previously (14). Briefly, after washing with PBS, cells were treated in 1 ml lysis buffer (0.01 M Tris.HCL pH 8.0, 0.01 M NaCl, 0.01M EDTA pH 8.0 and 5% sodium dodecyl sulfate) containing 1 μg/ml proteinase K for 1 hr at 50° C. The resulting products were extracted with phenol and chloroform:isoamylalcohol (24:1, v/v), and precipitated with ethanol followed by centrifugation at 7800 g (Sorvall RC-5B Du Pont, Newtown, Conn.). The ethanol was removed and the dry pellet of nucleic acid was resuspended in 10 mM Tris-HCL/1 mM EDTA solution. DNA content was determined spectrophotometrically by measuring absorption at 260 nm (A260). All samples, had A260/A280≧2. The DNA samples were then treated with RNase (Sigma, St. Louis, Mo.) at a final concentration of 0.1 μg/l for 20 min at 37° C. before gel loading. The DNA sample (4 μg) was analyzed in 1.5% horizontal agarose gel prepared with 1% ethidium bromide. Electrophoresis was performed at 75 volts for 2 hours and the DNA migration was visualized under UV light.

Purified tubulin = assay: Inhibition of microtubule assembly by spectrophotometry, cell free system; format: biochemical, calf; conditions: cell free tubulin, up to 10 μg/ml
Protocol: Purified tubulin was purchased from Sigma (St. Louis, Mo.). The effects of compounds 6, 7, 8, 9, paclitaxel and vinblastine on the microtubule assembly-disassembly process were determined using conditions recommended by the vendor. For assembly inhibition, 100 μl tubulin solution (500-600 μg protein/ml) was mixed gently with 400 μl reaction buffer containing 0.1 M MES (2-[N-morpholino]ethane sulfonic acid), 1 mM EGTA ([…]-N,N,N′,N′-tetraacetic acid), 0.5 mM MgCl2, 0.1 mM EDTA and 2.5 M gycerol at 37° C. Compounds 6, 7, 8, and 9 were next added to each sample at final concentrations of 10, 10, 1 and 1 μg/ml, respectively. After adding GTP to each sample to a final concentration of 1 mM, the microtubule assembly process was monitored by measuring the change of absorbance (OD) at 350 nm on a spectrophotometer (Ultrospec III, Pharmacia LKB, Uppsala, Sweden). A completed assembly process was observed within 40 min at room temperature. For disassembly inhibition, compounds 6, 7, 8, and 9 were added, at the above concentrations, to covets with repolymerized microtubules as described above, and incubated in melting ice. Changes of absorbance (OD) were monitored at 350 nm for 30 min until the OD values in the controls returned to the starting level, i.e., when the assembly-disassembly cycle was completed.
Purified tubulin from calf brain was purchased from Sigma (St. Louis, Mo.). The effects of 3-BAABU (3-bromoacetoamido, benzoylurea) on the microtubule assembly-disassembly process were determined using the conditions recommended by the vendor. For assembly inhibition, 100 μl tubulin solution (500-600 μg protein/ml) was mixed gently with 400 μl reaction buffer containing 0.1 M MES, 1 mM EGTA, 0.5 mM MgCl2, 0.1 mM EDTA and 2.5 M glycerol at 37° C. 3-BAABU, paclitaxel or vinblastine were then added to each sample cuvet at final concentrations of 3.3, 23 or 22 μM, respectively. After adding GTP to each sample to a final concentration of 1 mM, the microtubule assembly process was monitored by measuring the change of absorbance (OD) every 5 min at 350 nm on a spectrophotometer (Ultrospec III, Pharmacia LKB, Uppsala, Sweden). A completed assembly process was observed within 40 min at room temperature. For disassembly inhibition, 3-BAABU (3.3 μM), paclitaxel (23 μM) or vinblastine (22 μM) was added to a cuvet with repolymerized microtubules according to the method described above, and incubated in melting ice. Changes of absorbance (OD) were monitored at 350 nm for 30 min until the OD values in the controls returned to the starting level, i.e., completion of the assembly-disassembly cycle. Solvent solutions were used as control and had no effect in either the assembly or disassembly process.

CEM cells [4] = assay: Cell cycle analysis by flow cytometry; format: cell-based, human; conditions: 8 h treatment, compound 6 2.5 μg/ml, compound 8 0.025 μg/ml, compound 9 0.005 μg/ml
[5] = system: P338 leukemia lymphoma cells; assay: Survival and ED50 in mice implanted i.p. with P338 lymphoma; format: in vivo, male C57 BL/6JX mice
Protocol: FIG. 9 is a plot graph of the survival rate of male C57 BL/6JX mice implanted (i.p.) with P338 lymphoma, from 10 to 40 days after implantation. Two groups were used for the study: a control group of ten and a test group of ten that were treated with 20 mg/kg, (i.p.) of compound 8 at 2 and 8 days post-implantation.
(§1) The in vivo efficacy of 3-BAABU and 3-IAABU of the present invention was asssessed in a murine model, along with known anti-tubule agents, vinblastine and paclitaxel, as a comparative standard. Approximately 10^6 P338 leukemia lymphoma cells/mouse were implanted intra-peritoneal (i.p.) into male C57 BL/6JX mice (Jackson Laboratories, N.Y.). On days 2 and 8 post-implantation, drugs were administrated i.p. at the following concentration ranges: 3-BAABU from 16.6 to 116 μmole/kg, 3-IAABU from 14.4 to 101 μmole/kg, vinblastine from 2.2 to 20 μmole/kg and paclitaxel from 28 to 57 μmole/kg.
(§2) Both control and treated animals were examined for ascitic tumor burden daily for 35 days. […] Therapeutic index was defined as the ratio of LD50 (lethal dose) to ED50 (effective dose).

[6] = LD50 (lethal dose) in mice; conditions: mice, i.p.
Source text: as §1, §2

[7] = CEM cells, concentration killing 90% of the cells, read-out: ID90 (the source's name)

Compound | Activities of inducing Apoptosis (CEM cells [2]) | Activities of inducing Mitotic block (CEM cells [2]) | Activities of inducing Necrosis (CEM cells [2]) | IC90 (CEM cells [1]; [7]) | Mitotic arrest, % (CEM cells [2]; CEM cells) | also measured
3-bromopropionylamino benzoylurea [Compound 3-BPABU] | − (−:<10%) | − (−:<10%) | − (−:<10%) |  |  | cytotoxic activity (ID50 level) compared with 3-BAABU (CEM cells [1]; CEM leukemic cells): cytotoxic activity was eliminated
NC(=O)NC(=O)c1ccc(NC(=O)CI)cc1 [9 (4-position), 4-iodoacetoamido, benzoylurea] |  |  |  | 0.04 µg/mL and 112 nM | <10% | 
NC(=O)NC(=O)c1ccc(NC(=O)CBr)cc1 [Compound 4-BAABU, 4-bromoacetylamino benzoylurea] | − (−:<10%) | − (−:<10%) | ++++ (++++: >75%) | 0.15 µg/mL and 497 nM | <10% | pIC50 (CEM cells [1]; CEM leukemic cells): 6.64; morphological effect on leukemic cells (CEM cells [2]): necrotic cell death
NC(=O)NC(=O)c1cccc(NC(=O)CF)c1 [Compound 6, 3-Fluoroacetoamido, benzoylurea] |  |  |  |  | <10% | IC90 (CEM cells [1]; read-out: ID90): > 2.5 µg/mL and > 10 µM; cytotoxicity against human leukemic cells (CEM) (CEM cells [1]; at a concentration as high as 10 μM): no cytotoxicity; mitotic arrest (blocking) effect, morphological appearance (CEM cells [2]; CEM cells, 24 h, compound 8 at 0.025 μg/ml, compound 9 at 0.005 μg/ml): failed to induce mitotic arrest; interference with the cell cycle (CEM cells [2]; CEM cells, after 24 hours treatment, 2.5 μg/ml): virtually no interference; apoptosis, DNA fragmentation on gel electrophoresis (CEM cells [3]): did not induce apoptosis; effect on microtubule assembly (Purified tubulin): no effect; shift of the cell population from G0/G1 (2N) to G2/M (4N), DNA profile (CEM cells [4]): undetectable change; also recorded: identical to that of the untreated control
CCOC(=O)c1cccc(NC(=O)CCl)c1 [Compound 10, Ethyl-3-chloroacetoamido, benzoate] |  |  |  | 0.82 µg/mL and 3.39 µM | <10% | 
CCOC(=O)c1cccc(NC(=O)CBr)c1 [Compound 11, Ethyl-3-bromoacetoamido, benzoate] | ++++ (++++: >75%) | − (−:<10%) | − (−:<10%) | 0.18 µg/mL and 740 nM | <10% | fold increase of ID50 relative to 3-BAABU (CEM cells [1]; CEM leukemic cells): 10 fold; pIC50 (CEM cells [1]; CEM leukemic cells): 6.23; morphological effect on leukemic cells (CEM cells [2]): caused apoptosis
CC[C@]1(O)C[C@@H]2CN(CCc3c([nH]c4ccccc34)[C@@](C(=O)OC)(c3cc4c(cc3OC)N(C)[C@H]3[C@@](O)(C(=O)OC)[C@H](OC(C)=O)[C@]5(CC)C=CCN6CC[C@]43[C@@H]65)C2)C1 [Vinblastine, vinblastine sulfate] |  |  |  |  |  | Survival IL % ([5]; P338 Lymphoma (i.p.), 2 mg/kg ip on days 2 & 8): 21%; Survival Mean ± SD ([5]; P338 Lymphoma (i.p.), 2 mg/kg ip on days 2 & 8, control 15.1 ± 2.3): 18.2 ± 6.3; ED50 ([5]; P338 leukemia lymphoma i.p. in mice, drug i.p. on days 2 and 8): 4.5 µmol/kg; LD50 [6]: 9.2 µmol/kg
